Measured values taken from paper PMC11435065, “Inhibition of P-Glycoprotein Asymmetrically Alters the In Vivo Exposure Profile of SGC003F: A Novel Guanylate Cyclase Stimulator” (Pharmaceuticals, 2024).
Values joined by “and” are separate entries in the source; they are usually repeats but may differ in a detail not shown here. Identical values can stand only once. Like-named read-outs stand apart in the source and are kept apart here.

Experiments:
[1] = Urinary and fecal cumulative excretion of SGC003F in rats with or without tariquidar; type: in vivo; conditions: rat, SGC003F p.o. 1 mg/kg; for dose excreted: male, SD, urine and faeces
Experimental: In total, 18 male SD rats were randomly divided into three groups, with 6 rats in each group. Group I: SGC003F (p.o., 1 mg/kg) + blank vehicle (control group); Group Ⅱ: SGC003F (p.o., 1 mg/kg) + tariquidar (i.v., 7.5 mg/kg); Group III: SGC003F (p.o., 1 mg/kg) + tariquidar (p.o., 15 mg/kg). The rats were fasted for 12 h before oral administration. After administration, the rats were placed immediately in a metabolic cage and resumed feeding for 2 h. Urine and fecal samples were collected at 0–4, 4–8, 8–12, 12–24, 24–36, 36–48, 48–72, 72–96, and 96–120 h after administration. Fecal samples were homogenized with acetonitrile at a ratio of 1:4 (w/v) and stored at −40 °C for analysis.

[2] = Plasma pharmacokinetics of SGC003F in rats with or without tariquidar; type: in vivo, rat; conditions: for clearance / AUC(0-t) / Vd / Tmax / half-life / Cmax / bioavailability: male, Sprague-Dawley, plasma; for Vd: read-out: Vss; for bioavailability: read-out: F (bioavailability)
Experimental: Adult Sprague Dawley rats (230–280 g) were obtained from Beijing Vital River Laboratory Animal Technology Co., Ltd. (Beijing, China). The animals were kept in a controlled environment with a 12 h light/dark cycle and stable temperature, and had free access to food and water, adapting for one week. All animal procedures were approved by the Experimental Animal Ethics Committee of Beijing Institute of Pharmacology and Toxicology (IACUC-DWZX-2023-P718).
SGC003F and tariquidar were dissolved in a solvent consisting of 11% isopropyl myristate, 74% polyethylene glycol 35 castor oil, and 15% diethylene glycol monoethyl ether. The stock solution concentrations were 1 mg/mL for SGC003F and 22.5 mg/mL for tariquidar. Next, the stock solution of SGC003F and tariquidar were diluted with saline at a ratio of 1:9 and 1:3.5, respectively, to achieve a working solution of SGC003F (0.1 mg/mL) and tariquidar (5 mg/mL) for oral and intravenous administration in rats.
Thirty-six male SD rats were randomly divided into 6 groups, with 6 rats in each group. Group I: SGC003F (p.o., 1 mg/kg) + blank vehicle (control group); Group II: SGC003F (p.o., 1 mg/kg) + tariquidar (i.v., 7.5 mg/kg); Group III: SGC003F (p.o., 1 mg/kg) + tariquidar (p.o., 15 mg/kg); Group IV: SGC003F (i.v., 1 mg/kg) + blank vehicle; Group V: SGC003F (i.v., 1 mg/kg) + tariquidar (i.v., 7.5 mg/kg); Group VI: SGC003F (i.v., 1 mg/kg) + tariquidar (p.o., 15 mg/kg). Oral administration required fasting for 12 h in advance and free access to water. At 0.033 (i.v.), 0.083, 0.25, 0.5, 1, 2, 4, 8, 12, and 24 h after administration, 100 μL of blood was collected intravenously and placed in heparin tubes. All blood samples were centrifuged at 2500× g for 10 min at 4 °C, and plasma was stored at −40 °C for analysis.
The main pharmacokinetic parameters, such as time to peak (tmax), half-life (t1/2), peak concentration (Cmax), and area under the curve (AUC), bioavailability (F), were calculated using a non-compartmental model with WinNonlin 8.1 software (Princeton, NJ, USA).
The elimination rate constant (ke or λz) was determined from the terminal phase of the concentration–time curve by using a semilogarithmic plot. Furthermore, the half-life (t1/2) was calculated according to this equation t1/2 = 0.693/ke(1)
Bioavailability (F) was calculated according to Equation (2):F = Dose(i.v.) × AUC(p.o.)/Dose(p.o.) × AUC(i.v.) × 100%(2)

[3] = single, within 120 h, parent drug
[4] = tariquidar i.v. 7.5 mg/kg, 120 h
[5] = tariquidar p.o. 15 mg/kg, 120 h
[6] = with tariquidar i.v. 7.5 mg/kg, 120 h
[7] = with tariquidar p.o. 15 mg/kg, 120 h
[8] = rat, po, 1 mg/kg, SGC003F p.o. 1 mg/kg, single
[9] = rat, po, 1 mg/kg, SGC003F p.o. 1 mg/kg, with tariquidar i.v. 7.5 mg/kg
[10] = rat, po, 1 mg/kg, SGC003F p.o. 1 mg/kg, with tariquidar p.o. 15 mg/kg
[11] = rat, po, 1 mg/kg, rat plasma, SGC003F p.o. 1 mg/kg, single
[12] = rat, po, 1 mg/kg, rat plasma, SGC003F p.o. 1 mg/kg, with tariquidar i.v. 7.5 mg/kg
[13] = rat, po, 1 mg/kg, rat plasma, SGC003F p.o. 1 mg/kg, with tariquidar p.o. 15 mg/kg
[14] = rat plasma, SGC003F p.o. 1 mg/kg, tariquidar i.v. 7.5 mg/kg
[15] = rat plasma, SGC003F p.o. 1 mg/kg, tariquidar p.o. 15 mg/kg
[16] = rat, SGC003F i.v. 1 mg/kg, tariquidar i.v. 7.5 mg/kg
[17] = rat, SGC003F i.v. 1 mg/kg, tariquidar p.o. 15 mg/kg
[18] = rat, SGC003F p.o. 1 mg/kg, tariquidar i.v. 7.5 mg/kg
[19] = rat, SGC003F p.o. 1 mg/kg, tariquidar p.o. 15 mg/kg

dose excreted ([1]; oral, with tariquidar i.v. 7.5 mg/kg, 120 h, read-out: U + F (total urinary and fecal recovery)): 37.9 ± 5.99%
dose excreted ([1]; oral, with tariquidar p.o. 15 mg/kg, 120 h, read-out: U + F (total urinary and fecal recovery)): 36.7 ± 3.36%
dose excreted ([1]; po, 1 mg/kg, single, within 120 h, read-out: U + F (total urinary and fecal recovery of parent drug)): 71.5 ± 15.1%
Total cumulative urinary and fecal excretion relative to control group ([1]; after co-administration of tariquidar): 50%
F (cumulative fecal excretion) [1, 3]: 59.5 ± 14.4%
U (cumulative urinary excretion) [1, 3]: 11.9 ± 1.36%
F (fecal), Ratio 1 (with Tar (i.v.)/single) [1, 4]: 0.32
U + F, Ratio 1 (with Tar (i.v.)/single) [1, 4]: 0.53
U, Ratio 1 (with Tar (i.v.)/single) [1, 4]: 1.56
F (fecal), Ratio 2 (with Tar (p.o.)/single) [1, 5]: 0.19
U + F, Ratio 2 (with Tar (p.o.)/single) [1, 5]: 0.51
U, Ratio 2 (with Tar (p.o.)/single) [1, 5]: 2.13
F (cumulative fecal excretion) [1, 6]: 19.3% and 19.3 ± 2.31 %
U (cumulative urinary excretion) [1, 6]: 18.6% and 18.6 ± 4.37%
F (cumulative fecal excretion) [1, 7]: 11.5% and 11.5 ± 2.61 %
U (cumulative urinary excretion) [1, 7]: 25.3% and 25.3 ± 1.62%
clearance ([2]; rat, iv, 1 mg/kg, SGC003F i.v. 1 mg/kg, single): 2.18 mL/min/kg
clearance ([2]; rat, iv, 1 mg/kg, SGC003F i.v. 1 mg/kg, with tariquidar i.v. 7.5 mg/kg): 2.03 mL/min/kg
clearance ([2]; rat, iv, 1 mg/kg, SGC003F i.v. 1 mg/kg, with tariquidar p.o. 15 mg/kg): 1.49 mL/min/kg
AUC(0-t) ([2]; rat, iv, 1 mg/kg, rat plasma, SGC003F i.v. 1 mg/kg, single): 7620 ± 560 ng·h/mL
AUC(0-t) ([2]; rat, iv, 1 mg/kg, rat plasma, SGC003F i.v. 1 mg/kg, with tariquidar i.v. 7.5 mg/kg): 8170 ± 530 ng·h/mL
AUC(0-t) ([2]; rat, iv, 1 mg/kg, rat plasma, SGC003F i.v. 1 mg/kg, with tariquidar p.o. 15 mg/kg): 11300 ng·h/mL
Vd ([2]; rat, iv, 1 mg/kg, rat, SGC003F i.v. 1 mg/kg, single): 0.419 ± 0.0318 L/kg
Vd ([2]; rat, iv, 1 mg/kg, rat, SGC003F i.v. 1 mg/kg, with tariquidar i.v. 7.5 mg/kg): 0.422 ± 0.0328 L/kg
Vd ([2]; rat, iv, 1 mg/kg, rat, SGC003F i.v. 1 mg/kg, with tariquidar p.o. 15 mg/kg): 0.382 ± 0.0266 L/kg
Tmax [2, 8]: 1.33 ± 0.52 h
half-life [2, 8]: 3.45 ± 0.46 h
Tmax [2, 9]: 1.5 ± 0.55 h
half-life [2, 9]: 4.31 ± 0.91 h
Tmax [2, 10]: 2.33 ± 1.37 h
half-life [2, 10]: 4.35 ± 0.35 h
AUC(0-t) [2, 11]: 3540 ± 610 ng·h/mL
Cmax [2, 11]: 673 ± 187 ng/mL
AUC(0-t) [2, 12]: 5690 ± 1080 ng·h/mL
Cmax [2, 12]: 722 ± 111 ng/mL
AUC(0-t) [2, 13]: 10800 ng·h/mL
Cmax [2, 13]: 1430 ± 250 ng/mL
bioavailability ([2]; rat, po, 1 mg/kg, rat, SGC003F p.o. 1 mg/kg, single): 46.4%
bioavailability ([2]; rat, po, 1 mg/kg, rat, SGC003F p.o. 1 mg/kg, with tariquidar i.v. 7.5 mg/kg): 69.7%
bioavailability ([2]; rat, po, 1 mg/kg, rat, SGC003F p.o. 1 mg/kg, with tariquidar p.o. 15 mg/kg): 95.1%
bioavailability ([2]; rat, po, rat, SGC003F p.o. 1 mg/kg, with tariquidar p.o. 15 mg/kg): 95%
AUC0-t, Ratio 1 (with Tar (i.v.)/single) ([2]; rat plasma, SGC003F i.v. 1 mg/kg, tariquidar i.v. 7.5 mg/kg): 1.07
AUC0-t, Ratio 2 (with Tar (p.o.)/single) ([2]; rat plasma, SGC003F i.v. 1 mg/kg, tariquidar p.o. 15 mg/kg): 1.49
AUC0-t, Ratio 1 (with Tar (i.v.)/single) [2, 14]: 1.61
Cmax, Ratio 1 (with Tar (i.v.)/single) [2, 14]: 1.07
AUC0-t, Ratio 2 (with Tar (p.o.)/single) [2, 15]: 3.05
Cmax, Ratio 2 (with Tar (p.o.)/single) [2, 15]: 2.13
CL, Ratio 1 (with Tar (i.v.)/single) [2, 16]: 0.93
Vss, Ratio 1 (with Tar (i.v.)/single) [2, 16]: 1.00
CL, Ratio 2 (with Tar (p.o.)/single) [2, 17]: 0.68
Reduction of CL versus control group [2, 17]: 32%
Vss, Ratio 2 (with Tar (p.o.)/single) [2, 17]: 0.91
F, Ratio 1 (with Tar (i.v.)/single) [2, 18]: 1.50
Tmax, Ratio 1 (with Tar (i.v.)/single) [2, 18]: 1.13
t1/2, Ratio 1 (with Tar (i.v.)/single) [2, 18]: 1.25
F, Ratio 2 (with Tar (p.o.)/single) [2, 19]: 2.05
Tmax, Ratio 2 (with Tar (p.o.)/single) [2, 19]: 1.75
t1/2, Ratio 2 (with Tar (p.o.)/single) [2, 19]: 1.26
SMILES: COC(=O)Nc1c(N)nc(-c2nn(Cc3sccc3F)c3ncc(F)cc23)nc1N [SGC003F]
